Data as given in patent US20140154666A1, “Erythrocyte Preservation Method” (Trustees of Dartmouth College, priority 2012, published 2014).

Legend:
[1] = tested on: erythrocyte concentrate; conditions: presence of DEHP plasticizer in the storage container; cited from earlier work
[2] = tested on: erythrocyte concentrate; test: Hemolysis of erythrocyte concentrate after 42 days of refrigerated storage; assay type: cell-based; conditions: FIG. 1
From the text: (§1) Referring now to FIGS. 1-2, test results of two different erythrocyte concentrates are illustrated. The first erythrocyte concentrate is identified by, number 2032 and the second erythrocyte concentrate is identified by number 2086. Each of the samples was divided into four different containers. […] Also, for each sample, two of the containers included a gas system of 99.9% by volume xenon gas. The graphs indicate which container included or were absent xenon gas and/or DEHP plasticiser. The testing protocol for the containers was as follows:
(§2) For Containers That Are Absent Xe Gas:
(§3) a. Place non-Xe units flat on a rotator for 3.5 hours.
(§4) b. Place non-Xe units in blood bank refrigerator at the same time as the Xe units.
(§5) For Containers That Include Xe Gas:
(§6) a. Place Xe units flat in a pretested hyperatmic chamber.
(§7) b. Evacuate the chamber with vacuum to remove oxygen from the Xe units.
(§8) c. Pressurize the chamber with Xe gas at 4 atm.
(§9) d. Vent the chamber of Xe gas.
(§10) e. Pressurize the chamber with Xe gas at 4 atm.
(§11) f Vent the chamber of Xe gas.
(§12) g. Pressurize the chamber with Xe gas at 4 atm.
(§13) h. Vent the chamber of Xe gas.
(§14) i. Pressurize the chamber with Xe gas at 4 atm.
(§15) j. Place the pressurized Xe unit on an agitator for 3.5 h.
k. Place the pressurized Xe unit in a blood bank refrigerator at the same time as the non-Xe units.
While the Xe units and non-Xe units are in the blood bank refrigerator, the Xe units were periodically checked over a 42 day period to ensure that the pressure in the Xe units exceeded 1 atm. After 42 days, all of the units were removed from the blood bank refrigerator. After the units were removed from the blood bank refrigerator, the following procedures where conducted on the units:
1. Immediately place the pressurized Xe units and non-Xe units on a platelet to and-fro horizontal agitator for 10 minutes.
2. Depressurize all of the units by opening a value on the container.
3. Place all units on a bench top and hold for 3 hours.
4. Following the 3 hour hold period, test the samples for percentage of hemolysis and the ATP content.

[3] = tested on: erythrocyte concentrate; test: ATP content of erythrocyte concentrate after 42 days of refrigerated storage; assay type: cell-based; conditions: FIG. 2, samples 2032 and 2086, 99.9% by volume xenon gas, treated vs not treated
From the text: as §1, §2, §3, §4, §5, §6, §7, §8, §9, §10, §11, §12, §13, §14, §15
k. Place the pressurized Xe unit in a blood bank refrigerator at the same time as the non-Xe units. […]

Row | SMILES | number of erythrocytes that lysed during the storage of the erythrocyte concentrate [1] | hemolysis ([2]; 42 days, DEHP plasticiser added to a container that included xenon gas) | amounts of hemolysis ([2]; 42 days, containers that include DEHP plasticiser vs containers without) | ATP content in the erythrocyte concentrate [3] | amounts of hemolysis ([2]; 42 days, xenon gas with no DEHP plasticiser vs container with DEHP plasticiser and no xenon gas) | percent of hemolysis ([2]; samples 2032 and 2086, 99.9% by volume xenon gas at 4 atm, 42 days in blood bank refrigerator, treated vs not treated with xenon gas)
1 | CCCCC(CC)COC(=O)c1ccccc1C(=O)OCC(CC)CCCC (stereo not drawn) [DEHP plasticiser, his (2-ethylhexyl) phthalate] | reduces the number of erythrocytes that lysed | further reduction of hemolysis | Reduced amounts of hemolysis |  |  | 
2 | [Xe] [xenon gas, Xenon] |  |  |  | higher ATP content | lower amounts of hemolysis | significantly less
